Residues, ends and D or L forms follow the SMILES beside them.

h-mT1R2-481/T1R3mosaicB, sequence (Q8TE23 with tags, fused parts or gaps with the stated changes limits assumed): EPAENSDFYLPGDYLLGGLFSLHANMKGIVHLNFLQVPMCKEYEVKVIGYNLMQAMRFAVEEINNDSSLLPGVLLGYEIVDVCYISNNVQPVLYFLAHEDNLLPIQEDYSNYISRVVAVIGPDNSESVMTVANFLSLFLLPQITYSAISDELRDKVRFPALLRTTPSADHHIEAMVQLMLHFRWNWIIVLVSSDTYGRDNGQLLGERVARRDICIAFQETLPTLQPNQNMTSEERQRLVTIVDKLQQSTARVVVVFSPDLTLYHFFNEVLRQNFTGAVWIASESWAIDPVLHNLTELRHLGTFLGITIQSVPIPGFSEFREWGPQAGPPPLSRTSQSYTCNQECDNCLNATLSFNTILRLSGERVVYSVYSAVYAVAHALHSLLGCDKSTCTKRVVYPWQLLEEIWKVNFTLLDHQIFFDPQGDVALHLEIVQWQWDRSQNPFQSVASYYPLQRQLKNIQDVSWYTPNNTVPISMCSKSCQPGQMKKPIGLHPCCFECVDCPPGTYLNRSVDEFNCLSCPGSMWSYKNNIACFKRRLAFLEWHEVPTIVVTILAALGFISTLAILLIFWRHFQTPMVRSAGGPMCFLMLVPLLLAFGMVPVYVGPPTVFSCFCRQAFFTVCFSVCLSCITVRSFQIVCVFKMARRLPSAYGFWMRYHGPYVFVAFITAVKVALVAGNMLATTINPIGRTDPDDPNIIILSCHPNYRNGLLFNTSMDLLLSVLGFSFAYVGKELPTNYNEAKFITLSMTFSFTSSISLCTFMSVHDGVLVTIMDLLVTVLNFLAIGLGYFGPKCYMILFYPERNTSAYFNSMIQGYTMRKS
h-mT1R2-481/T1R3mosaicB, sequence (Q925D8 with tags, fused parts or gaps with the stated changes limits assumed): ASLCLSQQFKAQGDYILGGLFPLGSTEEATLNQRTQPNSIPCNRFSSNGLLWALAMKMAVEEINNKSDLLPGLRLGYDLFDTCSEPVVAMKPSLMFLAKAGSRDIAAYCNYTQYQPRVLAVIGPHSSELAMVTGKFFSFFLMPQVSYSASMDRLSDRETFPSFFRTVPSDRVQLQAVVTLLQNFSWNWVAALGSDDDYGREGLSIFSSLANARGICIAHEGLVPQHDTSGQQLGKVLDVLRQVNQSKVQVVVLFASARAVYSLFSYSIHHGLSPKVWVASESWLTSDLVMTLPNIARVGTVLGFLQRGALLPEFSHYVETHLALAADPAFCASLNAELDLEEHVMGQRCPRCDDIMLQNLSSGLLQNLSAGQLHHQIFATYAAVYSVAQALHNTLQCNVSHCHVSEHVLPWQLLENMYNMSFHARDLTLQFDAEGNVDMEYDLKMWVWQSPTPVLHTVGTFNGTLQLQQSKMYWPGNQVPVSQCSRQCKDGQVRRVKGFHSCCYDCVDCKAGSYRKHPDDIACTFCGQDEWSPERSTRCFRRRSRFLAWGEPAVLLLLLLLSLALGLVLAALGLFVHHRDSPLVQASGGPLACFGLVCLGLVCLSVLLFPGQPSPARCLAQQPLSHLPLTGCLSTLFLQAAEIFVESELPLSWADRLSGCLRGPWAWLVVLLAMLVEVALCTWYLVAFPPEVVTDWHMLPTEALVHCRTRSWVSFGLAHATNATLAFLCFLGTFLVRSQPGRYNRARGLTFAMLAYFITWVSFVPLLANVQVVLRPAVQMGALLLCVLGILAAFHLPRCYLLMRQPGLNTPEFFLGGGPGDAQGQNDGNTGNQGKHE

This assay addresses h-mT1R2-481/T1R3mosaicB (UniProt Q8TE23+Q925D8, A537S/A558R/A564V/A568V/A570T/A588V/A645S/A649T/A658V/A698V/A702T/A782V/A793V/A807V/A88D/C582S/C678S/E530V/E534N/E542M/E548N/E725V/F525Y/F541I/F612A/F622V/F665L/F695L/F71L/G696N/G701T/G86K/H484Y/H528R/H728R/I152V/I481V/I486P/I490V/I510L/I518V/I595M/I617V/I643V/I645L/I692L/I695G/I706V/I740A/I803L/K504M/K555R/K565R/K626T/K714N/K818R/K827G/L151M/L521P/L560F/L571I/L578I/L610P/L631F/L636F/L639V/L684P/L688V/L68N/L702I/L72W/L734M/L735F/L800F/L823M/L825Q/M492I/M616G/M644L/M682V/M690V/M744T/M748V/M74L/N540G/N541S/N547G/N675D/N721H/P545F/P561R/P564S/P638T/P67S/P824S/Q123R/Q536L/Q546K/Q550E/Q555R/Q611L/Q676H/Q757R/Q795R/Q831P/R498S/R632Q/R667S/S112P/S124D/S501P/S547N/S550A/S576L/S595F/S610P/S628F/S635P/S637R/S663R/S670G/S679G/S681F/S703N/S717H/S727G/S784D/S804G/T109A/T529S/T542A/T549I/T609V/T629S/T642S/T663I/T694M/T705I/T706G/T716I/T813A/V120A/V508I/V512P/V557A/V573A/V584A/V585L/V613L/V617M/V673M/V687A/V691A/V694A/V718L/V718M/V723A/V729T/V738A/V741L/V774I/V791M/V805L/V812A/V821L/W599R/W676R/W824R/Y533F/Y615F/Y671F/Y680C/Y769S/Y783H/Y794L). The following applies: Table 6; genes h-mT481/T1R3mB (h-mT1R2-481, T1R3mB); HEK293E cells. Here is the method:
The HEK293E cells maintained by using the DMEM/Ham's F-12 medium (Nakarai Tesque) containing 10% fetal bovine serum ([…]) and 1% Pen Strep (GIBCO) were washed with D-PBS(−) (Nakarai Tesque), and collected from the flask by using 0.25% Trypsin EDTA (GIBCO). The cells were centrifuged (1,200 rpm, 3 minutes), and after the supernatant was removed, suspended in 5% FBS DMEM/Ham's F-12 at a density of 0.75×10^7 cell/ml. This suspension (10 ml) was put into a […] (IWAKI), and culture was performed overnight (37° C., 5% CO2). On the next day, the medium was exchanged with Opti-MEM (30 ml, Invitrogen, Life Technologies), a sweet taste receptor gene mixture (Gα15-trans48LD gene, various kinds of T1R2 chimeric genes, and various kinds of T1R3 chimeric genes, 63.8 μg in total) prepared by using Opti-MEM and Lipofectamin 2000 (Invitrogen, Life Technologies) was slowly added to the cell suspension, and incubation was performed (37° C., 5% CO2) for 6 hours to attain gene transfer.
After the gene transfer, the cells were washed with D-PBS(−), then removed from the flask by using 0.25% Trypsin EDTA (GIBCO), and collected. After the cell number was counted, the cells were suspended in the 5% FBS DMEM medium (2.78 mM glucose, GIBCO) at a density of 0.5×10^6 cell/ml. This cell suspension was put into wells of D-Lysine coat 96-well plate (BD bioscience) in such a volume that the cell count is 7.0×10^4 cells/well, and the cells were cultured overnight.
After the culture, all the medium of the 96 wells were discarded. 200 μl of the staining solution for measurement of intracellular calcium ion′ Calcium Assay Kit Express (Molecular Device), diluted 80 times with an assay buffer (20 mM HEPES, 146 mM NaCl, 1 mM MgSO4, 1.39 mM glucose, 1 mM CaC12, 2.5 mM Probenecid, 0.05% bovine serum albumin) was added to each well, and the plate was left standing at 37° C. for 30 minutes and at room temperature for 45 minutes to perform staining. After the staining, 50 μl of a solution of stimulant (sweet taste substance) prepared with the assay buffer was added to each well, and the fluorescence value was measured for 120 seconds after the stimulation by using FDSSμEELL (Hamamatsu Photonics). By measuring the fluorescence value (Ex. 480 nm, Em. 540 nm) before and after the stimulation, the change of the intracellular free calcium ion concentration caused by addition of the stimulant via a sweet taste receptor was quantitatively investigated. The measurement and analysis of the fluorescence value was performed by using the software attached to FDSSμEELL (FDSS7000EX), and ΔF/F value was calculated in accordance with the following equation, and used for the evaluation. ΔF/F=(Maximum fluorescence value after stimulation−Minimum fluorescence value after stimulation)/(Fluorescence value before stimulation)
Furthermore, by using the ΔF/F values obtained when each sweet taste substance was added, the S/N ratio was calculated. Specifically, the S/N value was calculated by using the minimum value of ΔF/F obtained when each substance was added at various concentrations as noise (N) value, and the similarly obtained maximum value of ΔF/F as the signal (S) value, and used as an index for sensitivity of the measurement of the activity of each receptor. That is, a higher S/N value means a higher sensitivity for detection of an interaction of a sweet taste receptor and a test substance, which makes it easier to detect stimulation with a sweet taste substance or sweet taste-regulating substance of a lower concentration.
The sweet taste substances used as the stimulating substance are acesulfame potassium (Tokyo Kasei Kogyo), sodium saccharin (WAKO), sucralose (SIGMA), sucrose (WAKO), and neotame (SIGMA), as well as aspartame, advantame, and SC-45647 ([3-[(S)-1-phenylethyl]-2-(4-cyanophenyl)guanidino]acetic acid, which were all synthesized in-house.
On to `CC1=CC(=O)NS(=O)(=O)O1` [Acesulfame K, acesulfame potassium], for which the S/N stood at 5.6.
The same measure for `COC(=O)[C@H](Cc1ccccc1)NC(=O)[C@H](CC(=O)O)NCCCc1ccc(OC)c(O)c1` [Advantame, advantame]: 10.2; for `COC(=O)[C@H](Cc1ccccc1)NC(=O)[C@@H](N)CC(=O)O` [Aspartame, aspartame] (HELM PEPTIDE1{D.F.[CO[*:1]]}$$$$V2.0): 7.8.
Then `COc1ccc(CCC(=O)c2c(O)cc(O[C@@H]3O[C@H](CO)[C@@H](O)[C@H](O)[C@H]3O[C@@H]3O[C@@H](C)[C@H](O)[C@@H](O)[C@H]3O)cc2O)cc1O` [NHDC, neohesperidin dihydrochalcone], with 5.8.
The same measure for `COC(=O)[C@H](Cc1ccccc1)NC(=O)[C@H](CC(=O)O)NCCC(C)(C)C` [Neotame, neotame]: 7.7; for `C[C@H](NC(=Nc1ccc(C#N)cc1)NCC(=O)O)c1ccccc1` [SC-45647, [3-[(S)-1-phenylethyl]-2-(4-cyanophenyl)guanidino]acetic acid]: 7.7.
In turn, `O=C1NS(=O)(=O)c2ccccc21.[Na]` [Saccharin Na, sodium saccharin] displayed a S/N of 6.1.
`OC[C@H]1O[C@H](O[C@]2(CCl)O[C@H](CCl)[C@@H](O)[C@@H]2O)[C@H](O)[C@@H](O)[C@H]1Cl` [Sucralose, sucralose] showed a S/N of 6.6.
`OC[C@H]1O[C@@](CO)(O[C@H]2O[C@H](CO)[C@@H](O)[C@H](O)[C@H]2O)[C@@H](O)[C@@H]1O` [Sucrose, sucrose] returned a S/N of 4.0.

These data come from patent publication US9341616B2, “Sweet taste receptor chimeric proteins and use thereof” (AJINOMOTO CO., INC., priority 2014, dated 2016).
